In one experiment the test system is HSF1. The experiment can be described thus: Western blot of steady-state HSF1 protein levels in HepG2 whole cell extracts. Type of experiment: cell-based, human. The note with it: ALLN 40 μg/ml, 2 hours, with or without cycloheximide. The method, then: FIGS. 6A-6B: ALLN affects the trimerization of HSF. HepG2 cells were treated with serum-free MEM containing 1.5% BSA for 2 hours at 37° C. without any additions (lane1), at 37 ° C. but containing 40μg/ml of ALLN in the medium (lane2), at 37° C. in a medium containing both ALLN and 50 μg/ml of cycloheximide (lane3) , at 42° C. alone (lane4), or at 42° C. plus cycloheximide in the medium (lane5). Cell lysates were prepared as described under Experimental Details. The lysates were either directly run on the SDS-PAGE (A) to show the steady-state protein levels of HSF1 or subjected to cross-linking with ethylene glycol bis sucrinimidylsuccinate (EGS) before running the gel (B) to show the oligomeric forms of HSF1. The proteins were then transfered to a nitrocellulose membrane and immunoblotted with anti-human HSF1 antibody. Arrows on the right side indicates the monomeric, dimeric or trimeric forms of HSF1, respectively. This experiment was repeated three times with identical results.
For measurement of the steady-state HSF1 protein levels, whole cell extracts were prepared by lysing the cells directly with 2×SDS-sample buffer (Maniatis, et al., 1982). For chemical cross-linking experiments, whole-cell extracts were prepared as described (Mosser, et al., 1988). Briefly, the cold PBS-washed cell pellets were quickly and repeatedly frozen in liquid nitrogen. […]
Background: Immunoblotting shows a protein as a band on a membrane.

The subject of the next experiment is Hsp60. Nature of the experiment: Immunoprecipitation of Hsp60 from radiolabeled HepG2 cells. Type of experiment: cell-based, human. The note with it: HepG2, ALLN 4 hours. The protocol: (§1) FIGS. 7A-7B: Effects of ALLN on the biosynthesis of other members of Hsp family and related proteins. HepG2 cells were pre-treated and radiolabeled with or without ALLN for 4 hours as described in FIG. 1. Cell lysates were used for SDS-PAGE (A), or for immunoprecipitation with anti-Hsp25, -Hsp27, -Hsp60, -Hsp70, -Hsp86, -Hsp90, -Hsp104, -Bip, or -albumin antibodies respectively (1 μg/ml) (B). Because the anti-Hsp25, -Hsp27, -Hsp60 and Hsp90 antibodies are from a rat source, rabbit anti-rat IgG antibody was added after the first incubation, and the incubation was extended for another 1 hour at 4° C. before collection with protein A-Sepharose.Immunoprecipitates were loaded for SDS-PAGE and aliquoted for scintillation counting and plotting. Each value was presented as mean ±S.D. from three individual culture dishes.
(§2) HepG2 cells were preincubated for 4 hours in serum-free MEM and then radiolabeled with ^3 H-Leucine (150 μCi/ml) in a serum-free, leucine-free medium. […] Cell lysates containing equal amounts of trichloroacetic acid (TCA)-insoluble radioactivity were used for immunoprecipitations by incubating with individual monoclonal antibody (1 μg/ml) for 2.5 hours at 4° C. […]

The next experiment deals with Hsp25. Nature of the experiment: Immunoprecipitation of Hsp25 from radiolabeled HepG2 cells. Type of experiment: cell-based, human. The settings on record: HepG2, ALLN 4 hours. The protocol:
as §1, §2

For experiment [1], the system named is 3-hydroxy-3-methylglutaryl-coenzyme A (HMG-CoA) reductase. The note with it: Inoue, et al., 1991; cited from earlier work.

Square brackets hold non-standard residues; d marks the D form. Peptide text beside a SMILES is read from it. Nle = CCCC[C@H](N)C(=O)O

For `CCCC[C@@H](C=O)NC(=O)[C@H](CC(C)C)NC(=O)[C@H](CC(C)C)NC(C)=O` [ALLN, N-acetyl-leucyl-leucyl-norleucinal] (Ac-Leu-Leu-[Nle]-aldehyde), in the experiment with HSF1, the “Steady-state levels of HSF1 in whole cell extracts” value is given as “not significantly affected”. In addition, the “Effect on Hsp60” value in the experiment on Hsp60 was “no effects”. Further, the “Effect on Hsp25” value in the experiment with Hsp25 is “no effects”. For the same compound, the “Protection of HMG-CoA reductase” value in experiment [1] is “protected”.

Values taken from patent US5942494A, “Stimulation of gene expression and synthesis of heat shock protein 72/73 (HSP 70)” (The Trustees of Columbia University in the City of New York, priority 1996, dated 1999).
